The results in this text go back to article PMC9571594, “Development of Semisynthetic Apoptosis-Inducing Agents Based on Natural Phenolic Acids Scaffold: Design, Synthesis and In-Vitro Biological Evaluation” (Molecules, 2022).

“And” between values parts separate entries of the source, which are not always exact repeats. Identical values can stand only once. Like-named read-outs stand apart in the source and are kept apart here.

What all share (assay type): cell-based
Test [1] deals with Caco-2 cells. The test can be described thus: Cell-cycle analysis by flow cytometry. Particulars: for %G0–G1 / %G2/M / %S / %Pre-G1: Caco-2 cells; for %G0–G1 / %G2/M / %S: cell-cycle distribution after treatment; for %Pre-G1: Pre-G1 = apoptotic population; for apoptotic population compared to the parent compound: Caco-2, in words, versus parent 1 or 2. The method, then:
The potential candidates with anti-tumor effect on the Caco-2 cell line along with a high SI were chosen for cell-cycle analysis. The cell-cycle distribution and cell death were analyzed using Annexin V-FITC/PI staining and flow cytometry (Table 4, Figure 4).
In order to determine the percentage of viable, apoptotic and necrotic cells after treatment with our compounds, double-staining with fluorescein isothiocyanate (FITC) and PI was performed. Annexin V-FITC Apoptosis Detection Kit (BioVision, CA, USA) was used. Briefly, cultured Caco-2 were treated with the tested compounds or DMSO for 24h. Cells were then collected by centrifugation at 2000 rpm for 5 min, and the pellet was washed with PBS then centrifuged again at 2000 rpm for 5 min then resuspended in 500μL of the kit’s binding buffer before adding the Annexin V-FITC and PI. The cells were then incubated at room temperature in the dark for 5 min. […]
Assay : Cell Cycle Analysis
Kit used : ab139418_Propidium Iodide Flow Cytometry Kit/BD
Assay samples :Cell culture
(§1) Cpd. No. Cpd. No. Cpd. No. Cpd. No.
In general terms: A flow cytometer gives signals particle by particle.

The next test has as its system Caco-2 cancer cell line. The test can be described thus: MTT cell viability assay, Caco-2. Particulars: MTT, 48 h, average of triplicates, semi-synthesized compounds (Table 3), read-out: IC50 (μM) on Caco-2 cancer cell line. How it is done:
MCF-7 cells (Human breast adenocarcinoma), HepG2 (human hepatocellular carcinoma), A549 (human lung adenocarcinoma), Caco-2 (colon carcinoma), PANC-1 (human pancreatic cancer), and Vero cells (derived from normal kidney cells) were supplied by (Holding Company for Biological Products and Vaccines VACSERA; Giza, Egypt). The cells were cultured in PRMI 1640 medium (Lonza, Switzerland) supplemented with 10% fetal bovine serum (Gibco), 1% penicillin and 1% streptomycin (Sigma Aldrich, Saint Louis, MO, USA) at 37 °C under an atmosphere of 5% CO2 and 95% air.
The effect of parent compounds and their derivatives were assessed by (3-(4,5-dimethylthiazol-2-yl)-2,5diphenyl-tetrazolium bromide) MTT assay. […] After a merged sheet of cells developed, the growth media was decanted from the 96-well microtiter and refilled with different concentrations of compounds (µg/mL), and the plate was incubated at 37 °C for 48 h to minimize exposure to the dissolving agent (Supporting Information).
MTT solution (BIO BASIC CANADA INC) was prepared [5 mg/mL in phosphate buffered saline (PBS)], added to each well and incubated for 4 h, then after removing the media, 200 μL of DMSO was added to each well to solubilize the formazan crystals and the optical density of the formazan product was measured at 560 nm using microplate reader (mindray, MR-96A). The results were calculated as the mean of the three independent experiments. […]
Determination of sample cytotoxicity on cells (MTT protocol) […]
well) and incubated at 37°C for 24 hours to develop a complete monolayer sheet.
2- Growth medium was decanted from 96 well micro titer plates after confluent sheet of cells were formed, cell monolayer was washed twice with wash media.
3- two-fold dilutions of tested sample was made in RPMI medium with 2% serum […]
4- 0.1 ml of each dilution was tested in different wells leaving 3 wells as control, receiving only maintenance medium.
5- Plate was incubated at 37°C and examined. Cells were checked for any physical signs of toxicity, e.g. partial or complete loss of the monolayer, rounding, shrinkage, […]
6- MTT solution was prepared (5mg/ml in PBS) (BIO BASIC CANADA INC).
8- 20ul MTT solution were added to each well. Place on a shaking table, 150rpm for 5 minutes, to thoroughly mix the MTT into the media.
10) Dump off the media. (dry plate on paper towels to remove residue if necessary. […] 9 ش - ايلعلا هبضهلا - مطقملا / ىسيئرلا لمعملا […]

Test [2] relates to Caco-2 cells. The test can be described thus: Annexin V-FITC/PI apoptosis assay by flow cytometry. Details: key: % of cells. The settings on record: annexin-V FITC/PI staining, 24h. The method, then: In order to determine the percentage of viable, apoptotic and necrotic cells after treatment with our compounds, double-staining with fluorescein isothiocyanate (FITC) and PI was performed. Annexin V-FITC Apoptosis Detection Kit (BioVision, CA, USA) was used. Briefly, cultured Caco-2 were treated with the tested compounds or DMSO for 24h. Cells were then collected by centrifugation at 2000 rpm for 5 min, and the pellet was washed with PBS then centrifuged again at 2000 rpm for 5 min then resuspended in 500μL of the kit’s binding buffer before adding the Annexin V-FITC and PI. The cells were then incubated at room temperature in the dark for 5 min. Annexin V-FITC binding was measured using FACS Calibur flow cytometer (BD biosciences, USA) (Ex = 488 nm, Em = 533 nm, FL1 filter for annexin and FL2 filter for PI).

Another test has as its system MMP-9. The test can be described thus: RT-qPCR gene expression of MMP-9. The settings on record: for MMP9 Fold Change: Caco2, relative to cont.Caco2 = 1. How it is done:
(§2) The treated cells were harvested and the total RNA was extracted using RNeasy Mini Kit (Qiagen) according to the manufacturer’s instruction. The primers of the required genes (Table 6) were used for SYBR Green qRT-PCR using a one-step RT-PCR kit with SYBR Green (Bio-Rad). qRT-PCR was performed on Rotor Gene Q (Qiagen). […] Rotor-Gene 6000 Series Software was used for data analysis. and their HGNC ID was added (Table 6)
(§3) Researcher : Dr/Noura email: mob.
(§4) Reader : Rotorgene RT- PCR system
(§5) Kit used : Qiagen RNA extraction/BioRad syber green PCR MMX
(§6) Assay samples :Cell culture Lysate
as §1
A general note: In qPCR the cycle at which signal appears reflects the starting amount.

The next test deals with MMP-2. The experiment in a line: RT-qPCR gene expression of MMP-2. Particulars: for MMP2 Fold Change: Caco2, relative to cont.Caco2 = 1. The method, then:
as §2, §3, §4, §5, §6, §1

The next test has as its system Bax. The test can be described thus: RT-qPCR gene expression of Bax. How it is done: (§7) Gene expression was chosen over Western blotting for more accurate quantification and thus comparison. The gene expression of the p53, caspase 3 and Bax genes was measured.
(§8) The treated cells were harvested and the total RNA was extracted using RNeasy Mini Kit (Qiagen) according to the manufacturer’s instruction. The primers of the required genes (Table 6) were used for SYBR Green qRT-PCR using a one-step RT-PCR kit with SYBR Green (Bio-Rad). qRT-PCR was performed on Rotor Gene Q (Qiagen). […] Rotor-Gene 6000 Series Software was used for data analysis. and their HGNC ID was added (Table 6) […]
(§9) Researcher : DR Moh.Abdelbasir email: m_a_baser@yahoo.com mob.01 […]
as §4, §5, §6, §1
(§10) Run On Software Version Rotor-Gene 1.7.87
(§11) This report generated by Rotor-Gene 6000 Series Software 1.7 (Build 87) Copyright 2000-2006 Corbett Research, a Division of Corbett Life Science. All rights reserved. […]

For the next test, the system named is p53. The test can be described thus: RT-qPCR gene expression of p53. How it is done: as §7, §8, §9, §4, §5, §6, §1, §10, §11
Another test deals with Caspase 3. The test can be described thus: RT-qPCR gene expression of caspase 3. The method, then: as §7, §8, §9, §4, §5, §6, §1, §10, §11
A further test concerns Bcl-2. The test can be described thus: RT-qPCR gene expression of Bcl-2. The settings on record: Caco2, β-actin as control gene, relative to cont.Caco2 = 1; listed as FA9. How it is done:
as §8, §9, §4, §5, §6, §1, §10, §11

The mark [3] stands for this setting: Caco2, β-actin as control gene, relative to cont.Caco2 = 1, listed as FA9.

A word on the IC50: it is the midpoint of a concentration-inhibition curve. As to `Nc1ccccc1NC(=O)/C=C/c1ccc(O)c(O)c1` [Compound 11, (E)-N-(2-Aminophenyl)-3-(3,4-dihydroxyphenyl)acrylamide], in the test on Caco-2 cells [1], the “%G0–G1” value was found to be 41.09 ± 2.76%; the “%G2/M” value is 25.55 ± 2.47%; the “%S” value is recorded as 33.36 ± 2.73%; the “%Pre-G1” value is 14.04% and 14.04 ± 0.95%. Further, in the test with Caco-2 cells [1] (listed as CA12), the “%G0–G1” value is given as 41.09%, the “%G2/M” value came out at 25.55% and the “%S” value is on record as 33.36%. Besides, the IC50 with Caco-2 cancer cell line (Homo sapiens, Caco-2) was 10 µM. Moreover, in the test with Caco-2 cells [2], the “Apoptosis Total” value was found to be 14.04, the “Early Apoptosis” value was 2.47 and the Necrosis is given as 2.07. Also, in the test on Caco-2 cells [2] (listed as CA12), the “Late Apoptosis” value is recorded as 9.5. Further, the “MMP9 Fold Change” value with MMP-9 came to 0.30±0.006 Fold Change. Further, the “MMP2 Fold Change” value with MMP-2 is on record as 0.54±0.014 Fold Change.
Turning to `COc1cc(/C=C/C(=O)NC2CCCCC2)ccc1O` [Compound 15, (E)-N-Cyclohexyl-3-(4-hydroxy-3-methoxyphenyl)acrylamide], the “overexpression of Bax gene” value with Bax (Figures 6 and 7) was 15 fold. Also, in the test with Caco-2 cells [1], the “%G0–G1” value worked out at 26.59 ± 2.67%; the “%G2/M” value was found to be 50.83 ± 3.49%; the “%S” value worked out at 22.58 ± 2.91%; the “%Pre-G1” value is 25.17% and 25.17 ± 3.29%. Besides, in the test on Caco-2 cells [1] (listed as FA5), the “%G0–G1” value is reported as 26.59%, the “%G2/M” value was 50.83% and the “%S” value was 22.58%. Also, the “overexpression of p53 gene” value with p53 (Figures 6 and 7) was 10 fold. The IC50 with Caco-2 cancer cell line (Homo sapiens, Caco-2) is 20 µM. The “overexpression of caspase 3 gene” value with Caspase 3 (Figures 6 and 7) is 15 fold. For the same molecule, in the test on Caco-2 cells [2], the “Apoptosis Total” value is given as 25.17, the “Early Apoptosis” value came out at 5.79 and the Necrosis came out at 2.81. Besides, the “MMP9 Fold Change” value with MMP-9 is on record as 0.37±0.007 Fold Change. The “MMP2 Fold Change” value with MMP-2 came to 0.59±0.016 Fold Change.
In the case of `COc1ccc(/C=C/C(=O)NCc2ccccc2)cc1O` [Compound 18, (E)-N-Benzyl-3-(3-hydroxy-4-methoxyphenyl) acrylamide], the “Bax gene expression Fold Change” value in the test on Bax (setting [3]) is 6.06±0.41 Fold Change and 6.068 Fold Change. Moreover, in the test with Caco-2 cells [1], the “apoptotic population compared to the parent compound” value is recorded as “non-significant decrease”, the “%G0–G1” value was found to be 33.26 ± 4.29%, the “%G2/M” value is given as 37.62 ± 2.47% and the “%S” value worked out at 29.12 ± 4.05%. The “%Pre-G1” value with Caco-2 cells [1] is recorded as 12.92 ± 2.16%. In the test with Caco-2 cells [1] (listed as FA9), the “%G0–G1” value came out at 33.26%, the “%G2/M” value is listed as 37.62%, the “%S” value is 29.12% and the “%Pre-G1” value amounted to 12.92%. For the same molecule, in the test on p53 (setting [3]), the “P53 gene expression Fold Change” value is 5.87±0.27 Fold Change and 5.878 Fold Change. For the same molecule, the IC50 in the test on Caco-2 cancer cell line came to 50 µM. In the test with Caspase 3 (setting [3]), the “Casp3 gene expression Fold Change” value is 6.02±0.33 Fold Change and 6.029 Fold Change. In addition, in the test with Caco-2 cells [2], the “Apoptosis Total” value worked out at 12.92, the “Early Apoptosis” value was found to be 3.88, the “Late Apoptosis” value came to 7.31 and the Necrosis came to 1.73. For the same molecule, the “MMP9 Fold Change” value in the test on MMP-9 turned out to be 0.52±0.010 Fold Change. The “MMP2 Fold Change” value with MMP-2 is given as 0.42±0.011 Fold Change. Besides, the “Bcl2 gene expression Fold Change” value in the test with Bcl-2 was 0.58±0.03 Fold Change and 0.5856 Fold Change.
As for “(E)-3-(3-Hydroxy-4-methoxyphenyl)-N-(m-tolyl)acrylamide [Compound 17]”, in the test with Caco-2 cells [1], the “apoptotic population compared to the parent compound” value is recorded as “non-significant decrease” and the “%Pre-G1” value stood at 12.11 ± 0.97%. Besides, the “%Pre-G1” value in the test with Caco-2 cells [1] (listed as FA8) is recorded as 12.11%. In addition, in the test on Caco-2 cancer cell line, the IC50 was 20 µM. Besides, in the test on Caco-2 cells [2], the “Apoptosis Total” value is recorded as 12.11, the “Early Apoptosis” value was 4.25, the “Late Apoptosis” value is listed as 6.25 and the Necrosis was 1.61. In the test on MMP-9 (Figures 8 and 9), the “expression of MMP9 (in words)” value is reported as “greatest inhibition”. The “expression of MMP2 (in words)” value with MMP-2 (Figures 8 and 9) is on record as “greatest inhibition”.
